US8415312B2, “Compound which is a nystatin derivative” (Biosergen AS, priority 2007, dated 2013)
Where “and” joins values, the source holds several entries; their conditions need not be identical. Identical values can stand only once.

How the values were obtained:
human blood erythrocytes = experiment: In vitro toxicity study, haemolysis (Table 10); type: cell-based; conditions: for Haemolysis of human blood erythrocytes: individual blood samples # 1-3, listed as Amp B
erythrocytes = experiment: In vitro toxicity study, haemolysis (Tables 11 and 12); type: cell-based, horse; conditions: for Haemolysis of erythrocytes, Mean ± SE: 5 μg/mL (Table 11); for Haemolysis of erythrocytes: 5 μg/mL, individual blood samples # 1-3 (Table 11)
Solubility in 5% glucose = type: physicochemical

Structure (SMILES)	Haemolysis of human blood erythrocytes, MEAN ± SE (human blood erythrocytes; 2 μg/mL)	Haemolysis of human blood erythrocytes (human blood erythrocytes; 2 μg/mL)	Haemolysis of human blood erythrocytes, MEAN ± SE (human blood erythrocytes; 5 μg/mL)	Haemolysis of human blood erythrocytes (human blood erythrocytes; 5 μg/mL)	Haemolysis of erythrocytes, Mean ± SE (erythrocytes)	Haemolysis of erythrocytes (erythrocytes; listed as Amp B)	solubility in 5% glucose (Solubility in 5% glucose)	Haemolysis of erythrocytes (erythrocytes)
C[C@@H]1[C@H](O)[C@@H](C)/C=C/C=C/C=C/C=C/C=C/C=C/C=C/[C@H](O[C@@H]2O[C@H](C)[C@@H](O)[C@H](N)[C@@H]2O)C[C@@H]2O[C@](O)(C[C@@H](O)C[C@@H](O)[C@H](O)CC[C@@H](O)C[C@@H](O)CC(=O)O[C@H]1C)C[C@H](O)[C@H]2C(=O)O [Amphotericin B, reference compound]	6.1 ± 1.0%	4.4% and 5.9% and 8.0%	30.3 ± 0.6%	30% and 29.5% and 31.5%	39.7 ± 1.2%	39% and 38% and 42%	< 1000 µg/mL	–
CC1C=CC=CC=CC=CC=CC=CC=CC(OC2OC(C)C(O)C(N)C2O)CC2OC(O)(CC(O)C(O)CCC(O)CC(O)CC(O)CC(=O)OC(C)C(C)C1O)CC(O)C2C(=O)NCCCN(C)C (stereo not drawn) [Compound 11, S44HP DMAP Amide]	–	–	–	–	3.2 ± 0.1%	–	–	3% and 3.4% and 3.3%
